Reference: patent publication US7928182B2, “Glycerol polycarbonate, organic compositions containing same and method for obtaining said compositions” (Condat S.A., priority 2004, dated 2011)

Tests used:
Type in all cases: physicochemical
[1] = Combustion heat (ASTM D240); conditions: reference samples and control
Experimental: b) The combustion heat (kJ/g) was also measured according to standard ASTM D240. The combustion heat characterises the calorific energy released by a burning compound. The higher this value is, the better fuel a compound is and the more the “fire” is maintained by this factor, which is the temperature.

[2] = Density (densimeter); conditions: 25° C., glycerol carbonate alone; in g/cm3 (unit assumed)
[3] = Surface tension (ring tensiometer); conditions: 25° C., glycerol carbonate alone; in mN/m (unit assumed)

Compound	Combustion heat [1]	Density [2]	Surface tension [3]
CCO [Ethanol]	26.4 kJ/g		
CCCCCCC [Heptane]	40.2 kJ/g		
CO [Methanol]	19.6 kJ/g		
O=C1OCC(CO)O1 (centres unmarked) [glycerol carbonate]		1.386	53.81
